Assay [1] in a line: caspase activation in Bax/Bak-null MEFs, dose response, counter-screen for Bcl2-A1 inhibitor project, cell-based, mouse embryonic fibroblasts, dry powder, set 2 (AID 504344). Conditions: Bax/Bak-/- MEF caspase activation, CaspaseGlo luminescence, 3 h; at 35 µM (top of the series). (In general: The purpose of a counterscreen is to sort out artefacts and off-target activity.)
In assay [2] the test system is Bax/Bak-/- MEF caspase activation, CaspaseGlo luminescence, 3 h. Described as above.

Calls of active or inactive are those of the source.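 The calls were made as follows: active = fitted curve reaches 10% of the positive control caspase activation at or below the top valid tested dose; inactive = signal shifts the opposite way, plus the rest.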

Take `O=[N+]([O-])c1cnc2ccccc2c1Sc1ccccc1`: the caspase activation in assay [1] was 2.51% (inactive). Regarding `Cn1c(=O)c([N+](=O)[O-])c(Oc2ccccc2)c2ccccc21`, the caspase activation in assay [1] was 0.272% (inactive). On the same count and under the same terms, as for `CCOCCCNc1c([N+](=O)[O-])c(=O)n(C)c2ccccc12`, the figure is 0.166% (inactive); as for `O=C(Oc1cccc(/C=N/Nc2nc(Nc3ccccc3)nc(N3CCOCC3)n2)c1)c1ccco1`, 0.026% (inactive). Consider `CCOC(=O)N1CCN(c2c([N+](=O)[O-])c(=O)n(C)c3ccccc23)CC1`, for which the caspase activation in assay [1] was -0.062% (inactive).

Consider `C/C1=C/C(=O)O[C@@H]2C[C@@H](CC[C@H](C)/C=C\CC1)O[C@@](O)(C1CSC(=O)N1)C2` (stereo partly specified), for which the caspase activation in assay [1] was 0.173% (inactive). For the compound `Cc1ccc(Nc2c([N+](=O)[O-])c(=O)oc3ccccc23)cc1`, the caspase activation in assay [1] was -0.021% (inactive). Same read-out and setting: the same measure for `CN1C(=O)C(C)(C)N(Cc2ccccc2)c2ccccc21`: -0.187% (inactive); for `O=c1oc2ccccc2c(N2CCCCC2)c1[N+](=O)[O-]`: -0.245% (inactive). Turning to `Cn1c(=O)c([N+](=O)[O-])c(Nc2ccc(Cl)cc2)c2ccccc21`, in assay [1], the caspase activation was 0.654% (inactive). Regarding `Cn1c(=O)c([N+](=O)[O-])c(-n2cnc3ccccc32)c2ccccc21`, the caspase activation in assay [1] was 0.662% (inactive). `Cc1ccc(Sc2cc(=O)n(C)c3ccccc23)cc1`: the caspase activation in assay [1] is -0.817% (inactive).

Take `Cn1c(=O)c([N+](=O)[O-])c(Cl)c2ccccc21`: in assay [1], the caspase activation is 0.515% (inactive). On the same count and under the same terms, the same measure for `Cc1ccc(Nc2c([N+](=O)[O-])c(=O)n(C)c3ccccc23)cc1`: 0.3% (inactive). Regarding `O=c1oc2ccccc2c(Sc2ccccc2)c1[N+](=O)[O-]`, the caspase activation in assay [1] is -0.438% (inactive). Same read-out and setting: the same measure for `O=c1oc2ccccc2c(Cl)c1[N+](=O)[O-]`: -0.981% (inactive). `Cc1ccc(Sc2c([N+](=O)[O-])c(=O)oc3ccccc23)cc1`: the AC10 in assay [2] is > 35 µM (inactive). In the case of `Cc1ccc(Sc2c([N+](=O)[O-])cnc3ccccc23)cc1`, in assay [1], the caspase activation was 3.45% (inactive).

Regarding `CCSc1c([N+](=O)[O-])c(=O)oc2ccccc12`, in assay [1], the caspase activation is 0.365% (inactive). As for `Cc1ccc(Sc2c([N+](=O)[O-])c(=O)n(C)c3ccccc23)cc1`, in assay [1], the caspase activation was 1.18% (inactive).

`O=c1oc2ccccc2c(Nc2cc(Cl)cc(Cl)c2)c1[N+](=O)[O-]`: the caspase activation in assay [1] was -0.079% (inactive).

For the origin of these results see PubChem BioAssay AID504344 (Broad Institute, 2011).
